Test results: PMC11448502, “Cryo-EM structures of the human P2X1 receptor reveal subtype-specific architecture and antagonism by supramolecular ligand-binding” (Nature Communications, 2024)

Assays:
[1] = tested on: P2X1; details: reviewer comment, no reference given; cited from earlier work
[2] = molecular target: the molecule itself; assay: cryo-EM structure; single particle cryo-EM of purified hP2X1 in C12M (DDM)/CHS, 20 mM HEPES pH 7.0, 100 mM NaCl, 5 mg/mL; three states: apo closed, ATP-bound desensitized (endogenous ATP), NF449-bound inhibited (400 uM NF449)

Nc1ncnc2c1ncn2[C@@H]1O[C@H](COP(=O)(O)CP(=O)(O)OP(=O)(O)O)[C@@H](O)[C@H]1O [α, β-MeATP]
potency for P2X1 relative to P2X3 [1]: 10 times

B1: full-length wild-type human P2X1 receptor (receptor, UniProt P51575 1-399, looked up)
chain: MARRFQEELAAFLFEYDTPRMVLVRNKKVGVIFRLIQLVVLVYVIGWVFLYEKGYQTSSGLISSVSVKLKGLAVTQLPGLGPQVWDVADYVFPAQGDNSFVVMTNFIVTPKQTQGYCAEHPEGGICKEDSGCTPGKAKRKAQGIRTGKCVAFNDTVKTCEIFGWCPVEVDDDIPRPALLREAENFTLFIKNSISFPRFKVNRRNLVEEVNAAHMKTCLFHKTLHPLCPVFQLGYVVQESGQNFSTLAEKGGVVGITIDWHCDLDWHVRHCRPIYEFHGLYEEKNLSPGFNFRFARHFVENGTNYRHLFKVFGIRFDILVDGKAGKFDIIPTMTTIGSGIGIFGVATVLCDLLLLHILPKRHYYKQKKFKYAEDMGPGAAERDLAATSSTLGLQENMRTS
modifications: N-linked glycosylation (N-acetylglucosamine modelled in the extracellular domain, e.g. at N184)
notes: human P2X1 receptor (P2X purinoceptor 1), full-length wild type, no mutations or truncations; Cytoplasmic N- and C-terminal residues are not visible in the maps; also called hP2X1; hP2X1-WT; source: HEK293 GNTI- cells, BacMam baculovirus transduction; solubilised in DDM/CHS, purified (TALON resin, HRV 3C protease digestion, SEC on Superdex 200 increase)
stoichiometry N [2]: 3
